Source: patent US20020091086A1, “Peptides that block viral infectivity and methods of use thereof” (priority 1999, published 2002)
Read-outs that look alike come from different tables or passages of the source. Peptide text beside a SMILES is read from it.

What was measured:
HIV-1 [1] = conditions: 100 μM, HUT78 cells
Procedure: In experiment 6 (Table 7 and FIG. 1), approximately 200,000 HUT78 cells were infected with HIV-1 at 25 TCID50 to test the inhibitory effect of GPG-NH2, RQG-NH2, KQG-NH2, ALG-NH2, GVG-NH2, VGG-NH2, ASG-NH2, SLG-NH2, and SPT-NH2. The HUT cells were resuspended in lml of RPMI 1640 medium supplemented with 10% (v/v) heat-inactivated fetal bovine serum (FBS, GIBCO), penicillin (100 u/ml), streptomycin (100 u/ml) and Polybrene (Sigma, 2 μg/ml) with or without the presence of the different small peptides (100 μM) mentioned above. Thereafter, the HIV-1 virus was added at 25 TCID50 in a volume of 20 μl. Cells were incubated with the virus at 37° C. for one hour and, subsequently, the cells were pelleted at 170×g for seven minutes. The cells were then washed three times in RPMI medium without peptides at room temperature by cell sedimentation at 170×g for seven minutes, as above. After the final wash, the cells were resuspended in RPMI culture medium containing the peptides in 24-well plate (Costar corporation) and were kept at 37° C. in 5% CO2 with humidity. Culture supernatants were collected when medium was changed at day 4, 7, and 11 post infection and viral p24 production was monitored by using an HIV-1 p24 ELISA kit (Abbott Laboratories, North Chicago, USA).

HIV-1 [2] = conditions: H9 cells; for Day 7 RT HIV-1 / Day 10 RT HIV-1: 100 μM; for HIV-1 infection, result in words: summary of Experiments 1-5
Source text: (§1) In this example, the methods that were used to analyze the ability of various tripeptides to inhibit HIV-1, HIV-2, and SIV replication are disclosed. In Experiments 1 and 2, approximately 200,000 H9 cells were infected with HIV-1, HIV-2 or SIV at 25 TCID50 to test the inhibitory effect of the following synthesized tripeptides LKA-NH2, ILK-NH2, GPQ-NH2, GHK-NH2, GKG-NH2, ACQ-NH2, CQG-NH2, ARV-NH2, KAR-NH2, HKA-NH2, GAT-NH2, KAL-NH2, and GPG-NH2. Accordingly, the H9 cells were resuspended with or without the different peptides (approximately 100 μM) in 1 ml of RPMI 1640 medium supplemented with 10% (v/v) heat-inactivated fetal bovine serum (FBS), penicillin (100 u/ml), and streptomycin (100 u/ml), all available through GIBCO, and Polybrene (2 μg/ml), available through Sigma. Thereafter, viruses were added at 25 TCID50 in a volume of 20-30μl. Cells were incubated with virus at 37° C. for 1 hr then pelleted at 170×g for 7 minutes. The cells were then washed three times in RPMI medium without peptides at room temperature and pelleted at 170×g for 7 minutes, as above. After the final wash, the cells were resuspended in RPMI culture medium containing the peptides in a 24-well plate (Costar corporation) and were kept at 37° C. in 5% CO2 with humidity.
(§2) Culture supernatants were collected and analyzed when the medium was changed at 4, 7, 10, and 14 days post infection. To monitor the replication of virus, reverse transcriptase (RT) activity in the supernatants was assayed using a commercially available Lenti-RT activity kit. (Cavidi Tech, Uppsala, Sweden). The amount of RT was determined with the aid of a regression line of standards. The results are presented as absorbance values (OD) and higher absorbance indicates a higher protein concentration and greater viral infection. Syncytium formation was also monitored by microscopic examination.
In Experiment 3, (Table 4), approximately 200,000 H9 cells were infected with HIV-1, HIV-2 or SIV at 25 TCID50 to test the inhibitory effect of different concentrations of peptides GPG-NH2, GKG-NH2 and CQG-NH2 and combinations of these peptides (the indicated concentration corresponds to the concentration of each tripeptide). As above, H9 cells were resuspended with or without the different peptides at varying concentrations in 1 ml of RPMI 1640 medium supplemented with 10% (v/v) heat-inactivated fetal bovine serum (FBS), penicillin (100 u/ml), and streptomycin (100 u/ml), and Polybrene (2 μg/ml). Thereafter, viruses were added at 25 TCID50 in a volume of 20-30 μl. Cells were incubated with the indicated virus at 37° C. for 1 hr then pelleted at 170×g for 7 minutes. The cells were then washed three times in RPMI medium without peptides at room temperature and pelleted at 170×g for 7 minutes, as above. After the final wash, the cells were resuspended in RPMI culture medium containing the peptides in a 24-well plate (Costar corporation) and kept at 37° C. in 5% CO2 with humidity.
Culture supernatants were collected when the medium was changed at 4, 7, and 11 days post infection. As above, the replication of each virus was monitored by detecting reverse transcriptase (RT) activity in the supernatants using the Lenti-RT activity kit. (Cavidi Tech). The amount of RT was determined with the aid of a regression line of standards. The results are presented as absorbance values (OD) and higher absorbance indicates a higher protein concentration and greater viral infection.
In Experiment 4, (Table 5) approximately 200,000 H9 cells were infected with HIV-1 at 25 TCID50 to test the inhibitory effect of different concentrations of peptides GPG-NH2, GKG-NH2 and CQG-NH2 and combinations of these peptides (the indicated concentration corresponds to the total concentration of tripeptide).

HIV-2 = HIV-2 infectivity assay in H9 cells, RT activity in supernatant; format: cell-based
SIV = SIV infectivity assay in H9 cells, RT activity in supernatant; format: cell-based
HIV-1 [3] = conditions: H9 cells; for HIV-1 Syncytia: 100 μM; for HIV-1 syncytia formation, result in words: summary of Experiments 1-2
Source text: as §1, §2

| Compound | p24 (HIV-1 [1]; Experiment 6, Day 7 HIV-1) [pg/mL] | reduction (%) (HIV-1 [1]; Experiment 6, Day 7 HIV-1) | HIV-1 infection, result in words (HIV-1 [1]; summary of Experiment 6) | Day 7 RT HIV-1 (HIV-1 [2]; Experiment 1) [OD] | Day 10 RT HIV-1 (HIV-1 [2]; Experiment 1) [OD] | Day 7 RT HIV-1 (HIV-1 [2]; Experiment 2) [OD] | Day 10 RT HIV-1 (HIV-1 [2]; Experiment 2) [OD] | HIV-1 infection, result in words (HIV-1 [2]) | Day 7 RT HIV-2 (HIV-2; Experiment 1, 100 μM) [OD] | Day 10 RT HIV-2 (HIV-2; Experiment 1, 100 μM) [OD] | Day 7 RT HIV-2 (HIV-2; Experiment 2, 100 μM) [OD] | Day 10 RT HIV-2 (HIV-2; Experiment 2, 100 μM) [OD] | Day 7 RT SIV (SIV; Experiment 1, 100 μM) [OD] | Day 10 RT SIV (SIV; Experiment 1, 100 μM) [OD] | Day 7 RT SIV (SIV; Experiment 2, 100 μM) [OD] | Day 10 RT SIV (SIV; Experiment 2, 100 μM) [OD] | HIV-1 Syncytia (HIV-1 [3]; Experiment 1) | HIV-1 Syncytia (HIV-1 [3]; Experiment 2) | HIV-1 syncytia formation, result in words (HIV-1 [3]) |
| --- | --- | --- | --- | --- | --- | --- | --- | --- | --- | --- | --- | --- | --- | --- | --- | --- | --- | --- | --- |
| CC(C)C[C@H](NC(=O)[C@H](C)N)C(=O)NCC(N)=O [ALG-NH2, alanyl-leucyl-glycine amide] (H-Ala-Leu-Gly-NH2) | 42 | ~100 | inhibited and/or prevented HIV-1 infection |  |  |  |  |  |  |  |  |  |  |  |  |  |  |  |  |
| Ala-Arg-Val [ARV-NH2] |  |  |  | 0.156 | 1.528 | 0.618 | 2.829 | failed to prevent infection | 3.380 | 3.003 | 2.237 | 2.628 | 0.210 | 1.172 | 0.212 | 3.004 | pos | pos |  |
| Ala-Cys-Gln [ACQ-NH2] |  |  |  | 0.117 | 0.904 | 0.606 | 2.831 | did not prevent HIV infection | 3.418 | 2.753 | 1.661 | 2.505 | 1.241 | 2.746 | 0.612 | 2.606 | pos | pos |  |
| Gly-Ala-Thr [GAT-NH2] |  |  |  | 0.116 | 1.565 | 0.776 | 2.800 | failed to prevent infection | 3.461 | 2.835 | 1.707 | 2.565 | 0.892 | 2.343 | 0.572 | 2.776 | pos | pos | failed to prevent infection and HIV-1 syncytia formation |
| Gly-His-Lys [GHK-NH2] |  |  |  | 0.289 | 2.151 | 0.829 | 3.013 | failed to prevent infection | 3.522 | 2.931 | 1.936 | 2.418 | 0.097 | 2.384 | 0.396 | 2.394 | pos | pos | failed to prevent infection and HIV-1 syncytia formation |
